Our source for the IC50 values is patent publication US11247987B2, “Inhibiting ubiquitin specific peptidase 30” (FORMA Therapeutics, Inc., priority 2017, dated 2022).

Bounds are passed on as bounds.

The assay addresses T1, human recombinant USP30 (Homo sapiens, UniProt Q70CQ3).
T1 construct: purchased Boston Biochem E-582
T1 sequence (Q70CQ3 1-517): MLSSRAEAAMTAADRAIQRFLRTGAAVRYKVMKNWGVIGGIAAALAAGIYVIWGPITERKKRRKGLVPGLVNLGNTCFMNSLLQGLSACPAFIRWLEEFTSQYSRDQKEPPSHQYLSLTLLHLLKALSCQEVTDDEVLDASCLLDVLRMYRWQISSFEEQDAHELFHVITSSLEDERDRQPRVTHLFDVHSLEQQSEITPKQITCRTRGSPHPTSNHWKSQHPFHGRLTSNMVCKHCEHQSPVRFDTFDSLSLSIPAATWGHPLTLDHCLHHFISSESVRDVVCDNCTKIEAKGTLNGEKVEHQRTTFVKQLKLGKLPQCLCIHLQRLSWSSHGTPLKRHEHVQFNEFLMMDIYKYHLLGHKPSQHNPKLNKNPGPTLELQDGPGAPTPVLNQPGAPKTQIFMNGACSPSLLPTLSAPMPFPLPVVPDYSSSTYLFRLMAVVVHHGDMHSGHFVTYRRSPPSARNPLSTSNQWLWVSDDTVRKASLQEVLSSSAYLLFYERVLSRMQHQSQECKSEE
Put plainly: Ubiquitin-Rhodamine 110 Assay for USP30 Activity (USP30 Inhibitor Biochemical Assay). As to conditions: 0.2 nM USP30, 25 nM Ub-Rh110, 30 min preincubation, 30 min at room temperature; read-out: USP30 potency range (USP30 biochemical IC50 assay, IC50 ranges). As for the experimental part:
Example A: Biochemical Assay: Ubiquitin-Rhodamine 110 Assay for USP30 Activity (USP30 Inhibitor Biochemical Assay)
The assay was performed in a final volume of 9 μL in assay buffer containing 20 mM Tris-HCl (pH 8.0, (1M Tris-HCl, pH 8.0 solution; Corning 46-031-CM)), 1 mM GSH (L-glutathione reduced, Sigma-Aldrich, G4251-100G), 0.03% BGG (0.22 μM filtered, Sigma, G7516-25G), and 0.01% Triton X-100 (Sigma, T9284-10L). Nanoliter quantities of 10-point, 3-fold serial dilution in DMSO were pre-dispensed into 1536 assay plates (Corning, #3724BC) for a final test concentration of 25 μM to 1.3 nM, top to lowest dose, respectively. Concentration and incubation times were optimized for the maximal signal-to-background while maintaining initial velocity conditions at a fixed substrate concentration. The final concentration of USP30 (human recombinant USP30, Boston Biochem, cat. # E-582) in the assay was 0.2 nM. […] 3 μL of 2×USP30 was added to assay plates (pre-stamped with compound), preincubated for 30 minutes and then treated with 3 μL of 2×Ub-Rh110. Plates were incubated for 30 minutes at room temperature before addition of 3 μL of stop solution (final concentration of 10 mM citric acid (Sigma, 251275-500G)). Fluorescence was read on the Envision (excitation at 485 nm and emission at 535 nm; Perkin Elmer) or on the PheraSTAR (excitation at 485 nm and emission at 535 nm; BMG Labtech).
For all assay formats data were reported as percent inhibition compared with control wells based on the following equation: % inh=1−((FLU−AveLow)/(AveHigh−AveLow)) where FLU=measured Fluorescence, AveLow=average Fluorescence of no enzyme control (n=16), and AveHigh=average Fluorescence of DMSO control (n=16). IC50 values were determined by curve fitting of the standard 4 parameter logistic fitting algorithm included in the Activity Base software package: IDBS XE Designer Model205. Data is fitted using the Levenburg Marquardt algorithm.
Broadly, the IC50 is the concentration at which inhibition is half-maximal. With `N#CN[C@H]1C[C@H](C(=O)Nc2ccc(F)c(N3CCCCC3)c2)C1` [Compound 1-63, (1r,3r)-3-(cyanoamino)-N-[4-fluoro-3-(piperidin-1-yl)phenyl]cyclobutane-1-carboxamide], the IC50 fell in the range of 100 to 1000 nM.

Regarding `Cn1cc(-c2ccc(-c3cc(C(=O)N4CC[C@]45C[C@@H](NC#N)C5)on3)cc2)cn1` [Compound 3-5, {[(4r,6s)-1-{3-[4-(1-methyl-1H-pyrazol-4-yl)phenyl]-1,2-oxazole-5-carbonyl}-1-azaspiro[3.3]heptan-6-yl]amino} carbonitrile], the IC50 lay in the range of 100 to 1000 nM.

On to `CC1(C)[C@H](NC#N)C[C@H]1C(=O)Nc1cnc(C2CCCCC2)s1` [Compound 1-15, (1R,3R)-3-(cyanoamino)-N-(2-cyclohexyl-1,3-thiazol-5-yl)-2,2-dimethylcyclobutane-1-carboxamide], for which the IC50 lay within 100 to 1000 nM.

Turning to `N#CN[C@H]1C[C@H](C(=O)Nc2nc(Cl)c(C3CC3)s2)C1` [Compound 1-36, (1r,3r)-N-(4-chloro-5-cyclopropyl-1,3-thiazol-2-yl)-3-(cyanoamino)cyclo-butane-1-carboxamide], the IC50 was less than 100 nM.

In the case of `N#CN[C@H]1C[C@H](N2C[C@@H](Nc3ncc(C4CCCCC4)s3)CC2=O)C1` (single isomer, unassigned) [Compound 6-1], the IC50 was 100 to 1000 nM.

For the molecule `CN(C(=O)c1cc(-c2cccc(C#N)c2)no1)[C@H]1C[C@H](NC#N)C1` [Compound 3-6, 3-(3-cyanophenyl)-N-methyl-N-[(1r,3r)-3-(cyanoamino)cyclobutyl]-1,2-oxazole-5-carboxamide], the IC50 fell in the range of 1000 to 10000 nM.

Take `Cc1cc(NC(=O)[C@H]2C[C@H](NC#N)C2)cc(-c2ccccc2F)c1` [Compound 1-61, (1r,3r)-3-(cyanoamino)-N-[3-(2-fluorophenyl)-5-methylphenyl]cyclo-butane-1-carboxamide]: the IC50 was in the range of 100 to 1000 nM.

As to `N#CN[C@H]1C[C@H](C(=O)Nc2cc(-c3cccc(Cl)c3)no2)C1` [Compound 1-41, (1r,3r)-N-[3-(3-chlorophenyl)-1,2-oxazol-5-yl]-3-(cyanoamino)cyclo-butane-1-carboxamide], the IC50 lay within 100 to 1000 nM.

Regarding `N#CNC1CN(C(=O)Nc2ncc(C3CCCCC3)s2)C1` [Compound 2-1, 3-(cyanoamino)-N-(5-cyclohexyl-1,3-thiazol-2-yl)azetidine-1-carboxamide], the IC50 was 1000 to 10000 nM.

With `C[C@@H]1CCCC[C@@H]1c1cnc(NC(=O)[C@H]2C[C@H](NC#N)C2)s1` [Compound 1-21, (1r,3r)-3-(cyanoamino)-N-{5-[(1S,2R)-2-methylcyclohexyl]-1,3-thiazol-2-yl}cyclobutane-1-carboxamide], the IC50 was 100 to 1000 nM.

As to `CC1(C)CCCC[C@H]1c1ncc(NC(=O)[C@H]2C[C@H](NC#N)C2)s1` (single isomer, unassigned) [Compound 1-13], the IC50 lay in the range of 100 to 1000 nM.

Turning to `N#CN[C@H]1C[C@H](C(=O)Nc2ncc(C3CCOCC3)s2)C1` [Compound 1-1, trans-3-(cyanoamino)-N-[5-(oxan-4-yl)-1,3-thiazol-2-yl]cyclobutane-1-carboxamide], the IC50 was 1000 to 10000 nM.

With `N#CN[C@H]1C[C@H](C(=O)Nc2cnc(C3CCCCC3)s2)C1` [Compound 1-3, (1r,3r)-3-(cyanoamino)-N-(2-cyclohexyl-1,3-thiazol-5-yl)cyclobutane-1-carboxamide], the IC50 is less than 100 nM.

With `CN(c1nc(Cl)c(C2CCCCC2)s1)C(=O)[C@]1(F)C[C@H](NC#N)C1` [Compound 1-55, (1r,3r)-N-(4-chloro-5-cyclohexyl-1,3-thiazol-2-yl)-3-(cyanoamino)-1-fluoro-N-methylcyclobutane-1-carboxamide], the IC50 is less than 100 nM.

As for `N#CN[C@H]1C[C@](F)(C(=O)Nc2nc(Cl)c(C3CCCCC3)s2)C1` [Compound 1-47, (1s,3s)-N-(4-chloro-5-cyclohexyl-1,3-thiazol-2-yl)-3-(cyanoamino)-1-fluorocyclobutane-1-carboxamide], the IC50 lay within 100 to 1000 nM.

As to `N#CN[C@H]1C[C@@]2(CCN(c3nc(Cl)c(C4CCCCC4)s3)C2=O)C1` [Compound 7-2, {[(2s,4r)-6-(4-chloro-5-cyclohexyl-l,3-thiazol-2-yl)-5-oxo-6-azaspiro[3.4]octan-2-yl]amino}carbonitrile], the IC50 lay within 100 to 1000 nM.

For `Cc1nc(NC(=O)[C@H]2C[C@H](NC#N)C2)sc1C1CCCCC1` [Compound 1-29, (1r,3r)-3-(cyanoamino)-N-(5-cyclohexyl-4-methyl-1,3-thiazol-2-yl)cyclobutane-1-carboxamide], the IC50 was less than 100 nM.

For `N#CN[C@@H]1CCC[C@H]1C(=O)Nc1ncc(C2CCCCC2)s1` [Compound 10-3, (1R,2R)-2-(cyanoamino)-N-(5-cyclohexyl-1,3-thiazol-2-yl)cyclopentane-1-carboxamide], the IC50 was 1000 to 10000 nM.

For the molecule `N#CN[C@H]1CCC[C@@H](C(=O)Nc2ncc(C3CCCCC3)s2)C1` [Compound 10-4, (1R,3S)-3-(cyanoamino)-N-(5-cyclohexyl-1,3-thiazol-2-yl)cyclohexane-1-carboxamide], the half-inhibitory concentration (IC50) is more than 25000 nM.

`C[C@H]1CCCC[C@@H]1c1cnc(NC(=O)[C@H]2C[C@H](NC#N)C2)s1` [Compound 1-23, (1r,3r)-3-(cyanoamino)-N-{5-[(1S,2S)-2-methylcyclohexyl]-1,3-thiazol-2-yl}cyclobutane-1-carboxamide]: the IC50 was less than 100 nM.

In the case of `N#CN[C@H]1C[C@H](C(=O)Nc2cc(Cl)cc(C3CCCCC3)c2)C1` [Compound 1-62, (1r,3r)-N-(3-chloro-5-cyclohexylphenyl)-3-(cyanoamino)cyclo-butane-1-carboxamide], the IC50 is less than 100 nM.

In the case of `CC1(C)[C@@H]2CC[C@@H](CNC(=O)[C@H]3C[C@H](NC#N)C3)[C@H]1C2` [Compound 1-67, (1r,3r)-3-(cyanoamino)-N-{[(1R,2R,5R)-6,6-dimethylbicyclo[3.1.1]heptan-2-yl]methyl}cyclo-butane-1-carboxamide], the IC50 fell in the range of 100 to 1000 nM.

`C[C@@H]1CCCC[C@H]1c1cnc(NC(=O)[C@H]2C[C@H](NC#N)C2)s1` [Compound 1-24, (1r,3r)-3-(cyanoamino)-N-{5-[(1R,2R)-2-methylcyclohexyl]-1,3-thiazol-2-yl}cyclobutane-1-carboxamide]: the IC50 is less than 100 nM.

Turning to `N#CNC1CC2(CCN2C(=O)c2cnc(-c3ccccc3)s2)C1` (stereo not drawn) [Compound 3-2, {[1-(2-phenyl-1,3-thiazole-5-carbonyl)-l-azaspiro[3.3]heptan-6-yl]amino} carbonitrile], the IC50 lay in the range of 100 to 1000 nM.

For the molecule `CN(c1cc(-c2cccc(Cl)c2)on1)C(=O)[C@H]1C[C@H](NC#N)C1` [Compound 1-52, (1r,3r)-N-[5-(3-chlorophenyl)-1,2-oxazol-3-yl]-3-(cyanoamino)-N-methylcyclobutane-1-carboxamide], the IC50 lay in the range of 100 to 1000 nM.

Regarding `N#CN[C@H]1C[C@H](C(=O)Nc2ncc([C@H]3CCCC[C@@H]3C(F)(F)F)s2)C1` [Compound 1-34, (1r,3r)-3-(cyanoamino)-N-{5-[(1S,2S)-2-(trifluoromethyl)cyclo-hexyl]-1,3-thiazol-2-yl}cyclobutane-1-carboxamide], the IC50 lay in the range of 100 to 1000 nM.

Regarding `N#CN[C@H]1C[C@H](C(=O)Nc2ccc(Cl)c(C(F)(F)F)c2)C1` [Compound 1-20, (1r,3r)-N-[4-chloro-3-(trifluoromethyl)phenyl]-3-(cyano-amino)cyclobutane-1-carboxamide], the IC50 was in the range of 1000 to 10000 nM.

Regarding `N#CN[C@H]1C[C@@](F)(C(=O)Nc2nc3cccc(OC4CCC4)c3s2)C1` [Compound 1-65, (1r,3r)-3-(cyanoamino)-N-(7-cyclobutoxy-1,3-benzothiazol-2-yl)-1-fluorocyclobutane-1-carboxamide], the IC50 was less than 100 nM.

Take `C[C@]1(C(=O)Nc2nc(Cl)c(C3CCCCC3)s2)C[C@H](NC#N)C1` [Compound 1-44, (1r,3s)-N-(4-chloro-5-cyclohexyl-1,3-thiazol-2-yl)-3-(cyanoamino)-1-methylcyclobutane-1-carboxamide]: the IC50 was less than 100 nM.
